{"source": "patent US8084596B2", "about": "“Regulated apoptosis” (The Board of Trustees of the Leland Stanford Junior …, priority 1993, dated 2011)", "key": {"[1]": {"biological_target": "T1, MZF3E (Mus musculus, UniProt P24161)", "T1 construct": "expressed in transfected cells", "T1 sequence (P24161 with tags, fused parts or gaps limits assumed)": "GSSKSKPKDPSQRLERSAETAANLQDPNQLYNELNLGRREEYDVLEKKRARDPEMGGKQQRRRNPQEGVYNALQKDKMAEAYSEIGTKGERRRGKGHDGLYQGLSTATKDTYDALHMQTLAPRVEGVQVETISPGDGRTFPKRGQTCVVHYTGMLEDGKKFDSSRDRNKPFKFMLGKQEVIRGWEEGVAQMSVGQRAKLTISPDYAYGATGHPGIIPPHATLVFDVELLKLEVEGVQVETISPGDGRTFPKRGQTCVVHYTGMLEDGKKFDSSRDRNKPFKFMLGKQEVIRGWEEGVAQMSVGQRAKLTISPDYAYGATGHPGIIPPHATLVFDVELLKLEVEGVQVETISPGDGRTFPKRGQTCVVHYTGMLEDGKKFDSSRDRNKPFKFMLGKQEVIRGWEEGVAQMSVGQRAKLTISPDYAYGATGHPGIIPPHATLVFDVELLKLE", "assay": "Protein-tyrosine phosphorylation and kinase recruitment in Jurkat cells stably transfected with MZF3E", "type": "cell-based, human", "protocol": "Tyrosine phosphorylation after treatment of cells with either anti-CD3 MAb or FK1012 was detected using monoclonal alpha-phosphotyrosine antibodies. Whole cell lysates were analysed at varying times after stimulation."}, "[2]": {"system": "GF2E or GF3E with NF3V1E (G5E4TCAT reporter)", "sequence (P62942 2-108 limits assumed)": "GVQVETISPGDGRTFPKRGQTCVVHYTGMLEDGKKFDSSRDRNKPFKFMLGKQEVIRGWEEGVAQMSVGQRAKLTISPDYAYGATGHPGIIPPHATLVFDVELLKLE", "assay": "Transcriptional induction: CAT activity in Jurkat TAg cells transfected with GAL4-FKBP and FKBP-VP16 chimeras", "type": "cell-based, human", "conditions": "1 μM ligand, 12 hours; samples 5 (GF2E, NF3V1E) and 6 (GF3E, NF3V1E) in the presence of ligand", "procedure": "Jurkat TAg cells were transfected with the indicated constructs (5 μg of each construct) by electroporation (960 μF, 250 v). After 24 hours, the cells were resuspended in fresh media and aliquoted. […] After 12 hours, the cells were washed and cellular extracts were prepared by repeated freeze-thaw. Chloramphenicol acetyltransferase (CAT) activity was measured by standard protocols. Molecular Cloning: A Laboratory Manual, Sambrook et al. eds. (1989) CSH Laboratory, pp. 16-59 ff. […]"}, "[3]": {"system": "MZF3Eflu / MZF3Eflag", "sequence (P62942 2-108 limits assumed)": "as above", "assay": "Coimmunoprecipitation of epitope-tagged chimeras (anti-Flag agarose) in Jurkat T cells", "type": "cell-based, human"}, "[4]": {"assay": "Immunosuppression / toxicity in cell culture", "type": "cell-based"}, "[5]": {"biological_target": "T1, MZF3E", "assay": "NFAT-SEAP reporter via myristoylated chimeric CD3/FKBP12 (MZF3E) receptor in Jurkat T cells", "type": "cell-based, human"}, "[6]": {"system": "NFAT", "assay": "NFAT reporter (secreted alkaline phosphatase) after cross-linking chimeric receptor TAC/TAC/Z with anti-TAC mAb in TAg Jurkat cells", "type": "cell-based, human", "conditions": "addition of 1 ng/ml FK506; TTZ receptor, bound anti-TAC mAb", "excerpt": "The plasmid pSXNeo/IL2 (IL2-SX) (FIG. 1), which contains the placental secreted alkaline phosphatase gene under the control of human IL-2 promoter (−325 to +47; MCB(86) 6, 3042), and related plasmid variants (i.e. NFAT-SX, NF B-SX, OAP/Oct1-SX, and AP-1-SX) in which the reporter gene is under the transcriptional control of the minimal IL-2 promoter (−325 to −294 and -72 to −47) combined with synthetic oligomers containing various promoter elements (i.e. NFAT, NKB, OAP/Oct-1, and AP1, respectively), were made by three piece ligations of 1) pPL/SEAP (Berger, et al., Gene (1988) 66, 1) cut with SspI and HindIII; 2) pSV2/Neo (Southern and Berg, J. Mol. Appl. Genet. (1982) 1, 332) cut with NdeI, blunted with Klenow, then cut with Pvul; and 3) various promoter-containing plasmids (i.e. NFAT-CD8, B-CD8, cx121acZ-Oct-1, AP1-LUCIF3H, or cx151L2) described below) cut with PvuI and HindIII, NFAT-CD8 contains 3 copies of the NFAT-binding site (−286 to […]; Genes and Dev. (1990) 4, 1823) and cx12lacZ-Oct contains 4 copies of the OAP/Oct-1(ARRE-1) binding site (MCB, (1988) 8, 1715) from the human IL-2 enhancer; B-CD8 contains 3 copies of the NFB binding site from the murine light chain (EMBO (1990) 9, 4425) and AP1-LUCIF3H contains 5 copies of the AP-1 site (5′-TGA-[…]-3′ [SEQ ID NO:3]) from the metallothionen promoter. […]"}, "[7]": {"system": "TAg-Jurkat cells", "assay": "Inhibitory activity of drugs on ionomycin/PMA-stimulated TAg-Jurkat cells (β-galactosidase, MUG fluorescence)", "type": "cell-based, human", "procedure": "Ionomycin (1 μm) and PMA (25 ng/ml) were added to 10^5 TAg-Jurkat cells. In addition, titrations of the various drugs were added. After 5 hours the cells were lysed in mild detergent (i.e. Triton X-100) and the extracts were incubated with the β-galactosidase substrate, MUG (methyl galactosidyl umbelliferone) for 1 hour. A glycine/EDTA stop buffer was added and the extracts assayed for fluorescence. Each data point obtained was the average of two samples and the experiment was performed several times with similar results."}}}
{"compound": "FK1012-A (p-xylylenediamine bridge) [FK1012A]", "values": [{"measurement": "recruitment of kinase activity to the zeta-chain (in vitro kinase assay after immunoprecipitation)", "setting": "[1]", "result": "resulted in the recruitment of kinase activity to the zeta-chain"}, {"measurement": "CAT activity", "setting": "[2]", "result": "CAT activity present as expected"}, {"measurement": "dimerization of FKBP monomer constructs MZF1Eflu and MZF1Eflag", "setting": "[3]", "result": "also dimerized by FK1012A"}, {"measurement": "coimmunoprecipitation of MZF3Eflu with MZF3Eflag", "setting": "[3]; 1 μM, Jurkat T cells coexpressing both chimeras", "result": "MZF3Eflag interacts with MZF3Eflu and is coimmunoprecipitated"}]}
{"compound": "CO[C@H]1C[C@@H](C)C/C(C)=C/[C@@H](CCOC(=O)NCc2ccccc2)C(=O)C[C@H](O)[C@@H](C)[C@@H](/C(C)=C/[C@@H]2CC[C@@H](O)[C@H](OC)C2)OC(=O)[C@@H]2CCCCN2C(=O)C(=O)[C@]2(O)O[C@H]1[C@@H](OC)C[C@H]2C", "note": "[FK506-M]", "values": [{"measurement": "toxicity", "setting": "[4]", "result": "nontoxic"}, {"measurement": "termination of FK1012-induced signaling (deaggregation)", "setting": "[5]", "result": "FK1012-induced signaling can be terminated"}]}
{"compound": "C=CC[C@@H]1/C=C(\\C)C[C@H](C)C[C@H](OC)[C@H]2O[C@@](O)(C(=O)C(=O)N3CCCC[C@H]3C(=O)O[C@H](/C(C)=C/[C@@H]3CC[C@@H](O)[C@H](OC)C3)[C@H](C)[C@@H](O)CC1=O)[C@H](C)C[C@@H]2OC", "note": "[FK506, reference compound]", "values": [{"measurement": "FK1012B stimulation of NFAT reporter", "setting": "[5]; addition of 1 ng/ml FK506", "result": "dropped all stimulations to near background levels"}, {"measurement": "alkaline phosphatase reporter activity due to NFAT", "setting": "[6]", "result": "dropped all activity due to NFAT to background levels"}]}
{"compound": "FK1012-B (diaminodecane-1,10 bridge) [FK1012B]", "values": [{"measurement": "stimulation by the compound itself", "setting": "[7]; control experiment", "result": "not stimulatory by itself"}, {"measurement": "mitogen activity", "setting": "[7]; ionomycin 1 μm + PMA 25 ng/ml, highest concentration 5 μg/ml", "result": "appears to augment mitogen activity slightly"}]}
